Experimental data reported in ChEMBL document CHEMBL1212731, “Nonclonal emergence of colistin-resistant Klebsiella pneumoniae isolates from blood samples in South Korea” (2010).
In brackets after ≈: the same amount, converted by molar mass.

Assays:
Assay type in all cases: functional
Klebsiella pneumoniae [1] = assay: Antimicrobial activity against colistin-resistant Klebsiella pneumoniae isolated from bacteremia patient assessed as percentage of resistant isolates by broth microdilution method
Klebsiella pneumoniae [2] = assay: Antimicrobial activity against colistin-resistant Klebsiella pneumoniae isolated from bacteremia patient by broth microdilution method
Klebsiella pneumoniae [3] = assay: Antimicrobial activity against Klebsiella pneumoniae isolated from bacteremia patient assessed as percentage of resistant isolates by broth microdilution method
Klebsiella pneumoniae [4] = assay: Antimicrobial activity against colistin-susceptible Klebsiella pneumoniae isolated from bacteremia patient assessed as percentage of resistant isolates by broth microdilution method

| Molecule | Activity (Klebsiella pneumoniae [1]) [%] | MIC50 (Klebsiella pneumoniae [2]) [µg/mL] | MIC90 (Klebsiella pneumoniae [2]) [µg/mL] | Activity (Klebsiella pneumoniae [3]) [%] | Activity (Klebsiella pneumoniae [4]) [%] |
| --- | --- | --- | --- | --- | --- |
| CC1(C)S[C@@H]2[C@H](NC(=O)[C@H](N)c3ccccc3)C(=O)N2[C@H]1C(=O)O [AMPICILLIN] | 80 | 64 (≈ 183 µM) | > 64 | 91.4 | 92.2 |
| C[C@H]1[C@H](NC(=O)/C(=N\OC(C)(C)C(=O)O)c2csc(N)n2)C(=O)N1S(=O)(=O)O [AZTREONAM] | 6.7 | ≤ 0.06 | > 64 | 16.7 | 17.5 |
| CO/N=C(\C(=O)N[C@@H]1C(=O)N2C(C(=O)O)=C(COC(C)=O)CS[C@H]12)c1csc(N)n1 [CEFOTAXIME] | 6.7 | ≤ 0.12 | 128 (≈ 281 µM) | 14.5 | 15.1 |
| CC(C)(O/N=C(\C(=O)N[C@@H]1C(=O)N2C(C(=O)[O-])=C(C[n+]3ccccc3)CS[C@H]12)c1csc(N)n1)C(=O)O [CEFTAZIDIME] | 6.7 | 0.25 (≈ 0.457 µM) | > 64 | 17.7 | 18.5 |
| O=C(O)c1cn(C2CC2)c2cc(N3CCNCC3)c(F)cc2c1=O [CIPROFLOXACIN] | 20 | ≤ 0.06 | 64 (≈ 193 µM) | 17.7 | 17.5 |
| C[C@@H](O)[C@H]1C(=O)N2C(C(=O)O)=C(SCCNC=N)C[C@H]12 [IMIPENEM ANHYDROUS] |  | 0.25 (≈ 0.835 µM) | 1 (≈ 3.34 µM) | 0.5 | 0.5 |
| COLISTIN | 100 | 1 | 4 | 6.8 |  |
| GENTAMICIN | 6.7 | 0.5 | > 64 | 16.3 | 17 |
